ChEMBL document CHEMBL1201862, “PubChem BioAssay data set” (2004)
Active and inactive are the calls of the source.

Key:
[1] = target: E3 ubiquitin-protein ligase Mdm2 (Homo sapiens, UniProt Q00987); assay: MDM2-luc reporter signal enhancers, multi-concentration potency testing, MDM2 ubiquitin-protein ligase inhibitor program, whole-cell format, luminescence detection, 384-well microplate (AID 1394); assay type: functional;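 also: MDM2 E3 inhibitors raise luminescence so EC50 is for signal enhancement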
Chain of E3 ubiquitin-protein ligase Mdm2 (Q00987 whole entry): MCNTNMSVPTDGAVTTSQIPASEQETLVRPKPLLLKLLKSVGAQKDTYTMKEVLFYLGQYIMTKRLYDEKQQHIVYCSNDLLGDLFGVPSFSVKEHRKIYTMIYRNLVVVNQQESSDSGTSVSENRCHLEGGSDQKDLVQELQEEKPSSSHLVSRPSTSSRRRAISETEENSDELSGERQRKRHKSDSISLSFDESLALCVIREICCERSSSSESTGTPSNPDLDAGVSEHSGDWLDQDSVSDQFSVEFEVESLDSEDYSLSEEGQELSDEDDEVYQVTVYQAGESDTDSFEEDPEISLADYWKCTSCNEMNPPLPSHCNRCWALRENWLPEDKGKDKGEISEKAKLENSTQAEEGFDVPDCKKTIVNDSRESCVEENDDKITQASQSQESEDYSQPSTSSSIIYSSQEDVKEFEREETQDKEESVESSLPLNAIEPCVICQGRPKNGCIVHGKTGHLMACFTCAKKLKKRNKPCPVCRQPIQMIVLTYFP

[2] = target: T1, Heat shock factor protein 1 (Mus musculus, UniProt P38532); assay: decrease of HSF1-responsive luciferase luminescence – cell-based, NIH3T3, dose retest, confirmation (AID 2382); assay type: functional;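 also: NIH3T3 fibroblasts with HSF1-driven luciferase reporter stressed by proteasome inhibitor MG132; luminescence from HSF1-driven luciferase expression after 8 hours of MG132 stress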
T1 sequence (P38532 whole entry): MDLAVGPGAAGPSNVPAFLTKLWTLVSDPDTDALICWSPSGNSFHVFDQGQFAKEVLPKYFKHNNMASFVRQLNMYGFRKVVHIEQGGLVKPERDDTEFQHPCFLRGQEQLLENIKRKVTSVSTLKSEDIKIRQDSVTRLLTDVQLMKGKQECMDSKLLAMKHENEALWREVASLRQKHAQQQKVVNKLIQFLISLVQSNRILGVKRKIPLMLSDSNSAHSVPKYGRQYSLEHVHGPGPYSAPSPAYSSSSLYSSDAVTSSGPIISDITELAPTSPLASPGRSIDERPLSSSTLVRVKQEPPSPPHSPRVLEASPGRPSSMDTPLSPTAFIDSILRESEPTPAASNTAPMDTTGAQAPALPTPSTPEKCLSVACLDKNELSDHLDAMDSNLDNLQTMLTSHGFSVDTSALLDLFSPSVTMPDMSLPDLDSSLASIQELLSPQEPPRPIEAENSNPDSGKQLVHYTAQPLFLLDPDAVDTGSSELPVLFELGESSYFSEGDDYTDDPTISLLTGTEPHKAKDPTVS

Vero = assay: cells; assay type: functional; settings: Chlorocebus sabaeus
Paired box protein Pax-8 = Paired box protein Pax-8 (Homo sapiens, UniProt Q06710); assay: PAX8 transcriptional activity inhibition in RMG-I – RMG-I cells, luciferase, cherry-pick, dose response (AID 687027); assay type: functional, cell-based;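 also: luciferase reporter driven by Pax8 target thyroperoxidase promoter measured by SteadyGlo luminescence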
Chain of Paired box protein Pax-8 (Q06710 whole entry): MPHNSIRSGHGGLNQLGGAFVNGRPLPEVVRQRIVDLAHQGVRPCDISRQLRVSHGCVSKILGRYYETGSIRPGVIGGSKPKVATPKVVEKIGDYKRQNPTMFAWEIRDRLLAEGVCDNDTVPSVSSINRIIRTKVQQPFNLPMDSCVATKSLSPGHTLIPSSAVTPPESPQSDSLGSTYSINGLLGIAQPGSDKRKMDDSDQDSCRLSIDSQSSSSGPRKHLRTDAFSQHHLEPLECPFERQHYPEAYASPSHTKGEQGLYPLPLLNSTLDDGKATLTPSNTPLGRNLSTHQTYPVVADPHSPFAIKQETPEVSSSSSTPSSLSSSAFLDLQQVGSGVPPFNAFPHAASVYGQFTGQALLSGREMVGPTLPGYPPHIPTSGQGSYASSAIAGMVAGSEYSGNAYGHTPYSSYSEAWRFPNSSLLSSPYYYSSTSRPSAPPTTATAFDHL

[3] = target: T2, Tyrosine-protein phosphatase non-receptor type 7 (Homo sapiens, UniProt P35236); assay: HePTP tyrosine phosphatase activity blockers – biochemical, absorbance, leukemia target, primary screen (AID 521); assay type: functional
T2 sequence (P35236 whole entry): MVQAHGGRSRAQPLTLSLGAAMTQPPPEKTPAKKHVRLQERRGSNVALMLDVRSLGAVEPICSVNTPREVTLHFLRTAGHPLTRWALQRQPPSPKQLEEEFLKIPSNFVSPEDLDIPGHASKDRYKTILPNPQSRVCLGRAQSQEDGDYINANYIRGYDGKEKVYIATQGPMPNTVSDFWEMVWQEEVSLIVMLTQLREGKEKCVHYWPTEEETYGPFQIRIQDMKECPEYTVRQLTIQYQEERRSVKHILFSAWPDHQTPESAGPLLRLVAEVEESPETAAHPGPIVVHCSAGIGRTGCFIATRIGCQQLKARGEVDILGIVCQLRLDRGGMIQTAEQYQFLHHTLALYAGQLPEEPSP

Row | Compound | EC50 [1] | EC50 [2] | CC50 (Vero) | AC50 (Paired box protein Pax-8) | IC50 [3]
1 | COc1cc(/C=C2\COC/C(=C\c3cc(OC)c(OC)c(OC)c3)C2=O)cc(OC)c1OC | 182 µM (active) | > 195 µM (not active) | 2.07 µM (active) | 1.56 µM (active) | –
2 | O=C(NCc1cccc(C(F)(F)F)c1)C1CCCN(c2ncccn2)C1 (stereo not given) | – | – | – | – | > 100 µM (not active)
